What was measured:
[1] = system: Colon cancer HCT 116 cells; test: Alamar Blue metabolic readout on colonies of HCT 116 cells in a three-dimensional matrix, early-/late-stage treatment schedule; assay type: cell-based; settings: for Hit in drug screening (metabolic readout, Alamar Blue): 10 μM
Experimental: An example is given comprising an “early-” and a “late-stage” drug treatment for cells grown in three-dimensional matrices. Conditions of different cancer stages are identified, derived from profiling assays, as in FIG. 1, and schedules for drug screening are determined accordingly. Here, different cancer stages for cells cultured in three-dimensional matrices are determined as “early-” and “late-stage” cancer treatment.
The “early-stage” comprises two time points for readout. The first point of time at day seven is at the end of the drug treatment, whereas the second point in time at day eleven follows a drug-free recovery phase. The “late-stage” comprises two time points for readout. The first point in time at day seventeen is at the end of a second (independent from “early-stage”) drug treatment phase. The second point in time at day twenty-one follows a drug-free recovery phase. Measurements at additional points in time can be performed before the start of treatment and/or after different drug-free recovery phases.
In contrary, the “late-stage” illustrates existence of larger spheroids with a diameter of 155 μm, low cell proliferation (shown in FIG. 9), and presence of hypoxic condition (FIG. 1C). In both cases, the readouts are performed immediately after treatment end to test immediate drug efficacy, and after a four-day drug-free period to test recurrence of “mini-tumour” growth and/or retarded drug effects as the case observed with Gemcitabine (FIG. 10).
As an example for “Hit” generation a selection of drugs from a commercially available drug library (Prestwick) is used. In A) the effect of sixty drugs on cancer cells measured by metabolic readout (Alamar Blue®) is shown. […]
In FIG. 4 the determination of the half maximal inhibitory concentration (IC50) as an Alamar Blue® readout of selected “Hits” in FIG. 2, example 5-Fluorouracil (5-FU), on colonies of Colon cancer HCT 116 cells is shown. The readout was performed immediately after “early-” and “late-stage” treatments of cells in a three-dimensional matrix. […]

[2] = system: Colon cancer HCT 116 cells; test: Image-based analysis of cancer cell spheroid size in a three-dimensional matrix after early-/late-stage treatment; settings: early-stage treatment, IC50 and 1 mM
Experimental: In FIG. 3B an image-based analysis quantifying the distribution of diameter sizes of cell colonies, specifically cancer spheroids measured immediately after “early-” and “late-stage” treatment is shown as an example of a selection of drugs from FIG. 3 A at a drug concentration of 10 μM. Filled curves correspond to “hits” and unfilled curves are “no Hits” as determined using metabolic readouts at the ends of “early stage” and “late-stage” (Positive control: Cells treated with copper sulphate; negative control; Cells treated with DMSO).
In FIG. 4 the determination of the half maximal inhibitory concentration (IC50) as an Alamar Blue® readout of selected “Hits” in FIG. 2, example 5-Fluorouracil (5-FU), on colonies of Colon cancer HCT 116 cells is shown. The readout was performed immediately after “early-” and “late-stage” treatments of cells in a three-dimensional matrix. […] The IC50 curves obtained with two-dimensional reference assays are often similar to “early-stage” treatment conditions of the present invention (three-dimensional). This is also shown in the drug screening correlation of most “Hits” observed with the two assay methods in FIG. 3 A (upper panel). In FIG. 4 B an image-based analysis of cancer cell spheroids grown in a three-dimensional matrix after “early-” and “late-stage” treatment at selected drug concentrations, IC50 and 1 mM, are shown.

[3] = system: Pancreatic Panc-1 cancer cells; test: Two-dimensional reference assay on pancreatic cancer cells; assay type: cell-based
Experimental: For reference two-dimensional assays, cells are normally tested with drugs within the logarithmic proliferations phase between day one to four (FIG. 9). […] The dose-dependant efficacy profiles for “late-stage” treatment with Gemcitabine on pancreatic cancer cells culture in three-dimensional matrices were measured according to Alamar Blue® readout before and after the drug-free recovery period of four to seven, days.

[4] = system: Pancreatic Panc-1 cancer cells; test: Alamar Blue readout on Panc-1 cells in three-dimensional matrices, late-stage treatment with or without drug-free recovery; assay type: cell-based
Description: The “early-stage” comprises two time points for readout. The first point of time at day seven is at the end of the drug treatment, whereas the second point in time at day eleven follows a drug-free recovery phase. The “late-stage” comprises two time points for readout. The first point in time at day seventeen is at the end of a second (independent from “early-stage”) drug treatment phase. The second point in time at day twenty-one follows a drug-free recovery phase. Measurements at additional points in time can be performed before the start of treatment and/or after different drug-free recovery phases. […] The dose-dependant efficacy profiles for “late-stage” treatment with Gemcitabine on pancreatic cancer cells culture in three-dimensional matrices were measured according to Alamar Blue® readout before and after the drug-free recovery period of four to seven, days.

Potency (IC50 shift) from early to late treatment ([1]; late-stage versus early-stage treatment, readout immediately after treatment, three-dimensional matrix) | SMILES | Hit in drug screening (metabolic readout, Alamar Blue) ([1]; triplicate, selected Hit of the screening campaign, stage not stated) | Hit in drug screening (metabolic readout, Alamar Blue) ([1]; late-stage treatment, three-dimensional matrix) | Inhibition of spheroid growth [2] | Activity (dose-dependent efficacy) [3] | Cell growth inhibition (dose-dependent efficacy, Alamar Blue) ([4]; measured after drug-free recovery period of four to seven days) | Activity (dose-dependent efficacy, Alamar Blue) ([4]; measured immediately after the treatment)
less potent | O=c1[nH]cc(F)c(=O)[nH]1 [5-FU, 5-Fluorouracil] | Hits | no Hit | strong inhibition | – | – | –
– | Nc1ccn([C@@H]2O[C@H](CO)[C@@H](O)C2(F)F)c(=O)n1 [Gemcitabine] | – | – | – | not shown to be active | potent cell growth inhibitor | not shown to be active
